Data as given in ChEMBL document CHEMBL3576804, “Novel Potent Orthosteric Antagonist of ASIC1a Prevents NMDAR-Dependent LTP Induction” (J Med Chem, 2015).
Activity calls are given as the source filed them. No cut-off for these calls is given here.

Key:
Hippocampus [1] = test: Effect on amplitude of field excitatory postsynaptic potential in Wistar rat hippocampal CA3-CA1 region at 100 nM by patch clamp method; type: functional
Hippocampus [2] = test: Inhibition of amplitude of inhibitory postsynaptic currents in Wistar rat hippocampal CA3-CA1 region at 100 nM by patch clamp method; type: functional, tissue-based
Hippocampus [3] = test: Inhibition of amplitude of excitatory postsynaptic currents in Wistar rat hippocampal CA3-CA1 region at 100 nM by patch clamp method; type: functional, tissue-based
Hippocampus [4] = test: Increase in slope of field excitatory postsynaptic potential in Wistar rat hippocampal CA3-CA1 region at 100 nM by patch clamp method; type: functional, tissue-based
Hippocampus [5] = test: Increase in amplitude of field excitatory postsynaptic potential in Wistar rat hippocampal CA3-CA1 region at 100 nM by patch clamp method; type: functional, tissue-based
Hippocampus [6] = test: Increase in short-term potentiation in Wistar rat hippocampal CA3-CA1 region at 100 nM by patch clamp method (reference value: 225.9 +/- 12.4%); type: functional
Hippocampus [7] = test: Blocking of short-term potentiation in Wistar rat hippocampal CA3-CA1 regions at 100 nM by patch clamp method (Rvb =142.9 +/- 25%); type: functional
Hippocampus [8] = test: Effect on NMDAR-independent long-term potentiation in Wistar rat hippocampal MF-CA3 region at 100 nM in presence of NMDA receptor blocker MK801 by patch clamp method (reference value: 118.3 +/- 9.6%); type: functional
[9] = target: T1, Acid-sensing ion channel 1 (Homo sapiens) (UniProt P78348); test: Inhibition of human ASIC1a endogenously expressed in HEK293 cells clamped at -100 mV gated ionic current at 10 uM at pH 5.0 by standard whole cell patch clamp assay; type: cell-based
T1 sequence (whole entry): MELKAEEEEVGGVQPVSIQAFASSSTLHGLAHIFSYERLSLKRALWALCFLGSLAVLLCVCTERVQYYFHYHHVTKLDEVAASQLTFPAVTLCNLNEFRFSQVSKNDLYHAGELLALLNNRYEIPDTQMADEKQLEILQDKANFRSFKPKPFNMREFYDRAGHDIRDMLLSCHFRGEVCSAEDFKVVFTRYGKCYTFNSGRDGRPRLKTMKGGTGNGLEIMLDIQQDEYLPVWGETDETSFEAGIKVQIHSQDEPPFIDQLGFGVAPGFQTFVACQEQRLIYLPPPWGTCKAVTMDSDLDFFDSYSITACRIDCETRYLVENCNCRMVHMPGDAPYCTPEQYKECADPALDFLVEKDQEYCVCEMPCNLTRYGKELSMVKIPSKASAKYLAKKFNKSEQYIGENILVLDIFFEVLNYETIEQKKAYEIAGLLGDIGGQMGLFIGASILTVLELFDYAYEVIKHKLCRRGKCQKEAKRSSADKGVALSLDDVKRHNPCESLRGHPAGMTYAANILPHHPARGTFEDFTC

[10] = target: T1, Acid-sensing ion channel 1 (Homo sapiens); test: Inhibition of human ASIC1a endogenously expressed in HEK293 cells clamped at -100 mV gated ionic current at 10 uM at pH 6.7 by standard whole cell patch clamp assay; type: cell-based
[11] = target: T1, Acid-sensing ion channel 1 (Homo sapiens); test: Inhibition of human ASIC1a endogenously expressed in HEK293 cells clamped at -100 mV gated ionic current at 100 nM at pH 5.0 by standard whole cell patch clamp assay; type: cell-based
[12] = target: T1, Acid-sensing ion channel 1 (Homo sapiens); test: Inhibition of human ASIC1a endogenously expressed in HEK293 cells clamped at -100 mV gated ionic current at 100 nM at pH 6.7 by standard whole cell patch clamp assay; type: cell-based
[13] = target: T2, Acid-sensing ion channel 1 (Rattus norvegicus) (UniProt P55926); test: Inhibition of ASIC1a in Wistar rat hippocampal neurons assessed as ASIC1a-like currents level at 10 uM by patch clamp assay; parameters: scale not given: the % may be the effect or the level left
T2 sequence (whole entry): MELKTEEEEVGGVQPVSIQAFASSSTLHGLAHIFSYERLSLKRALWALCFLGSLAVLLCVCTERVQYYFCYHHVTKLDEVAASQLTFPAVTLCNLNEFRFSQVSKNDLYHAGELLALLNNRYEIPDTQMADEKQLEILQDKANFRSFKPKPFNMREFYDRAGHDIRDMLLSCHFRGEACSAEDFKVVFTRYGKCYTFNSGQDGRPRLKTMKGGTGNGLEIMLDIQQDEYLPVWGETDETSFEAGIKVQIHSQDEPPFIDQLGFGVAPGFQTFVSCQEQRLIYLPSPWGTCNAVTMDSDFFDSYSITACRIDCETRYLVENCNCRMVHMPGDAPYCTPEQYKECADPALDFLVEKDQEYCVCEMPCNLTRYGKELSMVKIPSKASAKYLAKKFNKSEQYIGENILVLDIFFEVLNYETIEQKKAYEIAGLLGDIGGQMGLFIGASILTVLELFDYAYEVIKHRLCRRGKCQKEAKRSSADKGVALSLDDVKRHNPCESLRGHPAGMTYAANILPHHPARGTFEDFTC

[14] = target: T3, Acid-sensing ion channel 3 (Rattus norvegicus) (UniProt O35240); test: Inhibition of ASIC3 in Wistar rat hippocampal neurons assessed as fast ASIC3-like currents level at 10 uM by patch clamp assay; parameters: scale not given: the % may be the effect or the level left
T3 sequence (whole entry): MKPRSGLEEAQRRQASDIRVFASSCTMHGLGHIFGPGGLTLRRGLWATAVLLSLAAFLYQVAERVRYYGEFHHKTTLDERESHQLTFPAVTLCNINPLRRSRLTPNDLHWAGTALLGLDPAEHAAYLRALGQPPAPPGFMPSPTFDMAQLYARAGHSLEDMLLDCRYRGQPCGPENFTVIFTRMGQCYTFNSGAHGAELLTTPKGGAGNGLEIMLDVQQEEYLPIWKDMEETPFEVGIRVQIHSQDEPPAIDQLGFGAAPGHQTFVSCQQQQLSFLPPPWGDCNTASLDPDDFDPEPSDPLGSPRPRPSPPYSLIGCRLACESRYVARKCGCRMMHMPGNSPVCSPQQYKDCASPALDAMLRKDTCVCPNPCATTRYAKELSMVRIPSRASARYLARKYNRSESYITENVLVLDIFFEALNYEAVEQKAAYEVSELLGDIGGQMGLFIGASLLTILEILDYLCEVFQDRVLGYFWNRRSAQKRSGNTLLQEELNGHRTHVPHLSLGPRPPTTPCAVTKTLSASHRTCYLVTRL

[15] = target: T4, Acid-sensing ion channel 2 (Rattus norvegicus) (UniProt Q62962); test: Inhibition of ASIC2 in Wistar rat hippocampal neurons assessed as slow ASIC2-like currents level at 10 uM by patch clamp assay; parameters: scale not given: the % may be the effect or the level left
T4 sequence (whole entry): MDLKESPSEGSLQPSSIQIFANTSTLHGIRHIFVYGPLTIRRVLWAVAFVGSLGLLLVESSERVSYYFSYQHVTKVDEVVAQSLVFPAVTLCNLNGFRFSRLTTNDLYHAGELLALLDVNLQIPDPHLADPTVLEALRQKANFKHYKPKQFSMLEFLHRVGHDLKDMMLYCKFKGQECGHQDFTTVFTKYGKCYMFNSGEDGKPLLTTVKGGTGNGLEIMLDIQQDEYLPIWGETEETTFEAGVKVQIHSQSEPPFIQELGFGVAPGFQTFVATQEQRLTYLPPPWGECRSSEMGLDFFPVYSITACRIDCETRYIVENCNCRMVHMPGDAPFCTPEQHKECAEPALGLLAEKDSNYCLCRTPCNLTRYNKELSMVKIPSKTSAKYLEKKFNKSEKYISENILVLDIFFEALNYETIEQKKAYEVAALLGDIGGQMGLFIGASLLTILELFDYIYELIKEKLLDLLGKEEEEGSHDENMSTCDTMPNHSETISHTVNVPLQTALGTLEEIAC

[16] = target: T5, Acid-sensing ion channel 1 (Homo sapiens, UniProt P78348); test: Inhibition of human ASIC1a endogenously expressed in HEK293 cells clamped at -100 mV gated ionic current at pH 6.7 by standard whole cell patch clamp assay; type: cell-based
T5 sequence (P78348 whole entry): T1 sequence (whole entry)

[17] = target: T5, Acid-sensing ion channel 1; test: Inhibition of human ASIC1a endogenously expressed in HEK293 cells clamped at -100 mV gated ionic current at pH 5.0 by standard whole cell patch clamp assay; type: cell-based
[18] = target: T1, Acid-sensing ion channel 1 (Homo sapiens); test: Reversible inhibition of human ASIC1a endogenously expressed in HEK293 cells clamped at -100 mV gated ionic current at pH 6.7 measured after drug wash out by standard whole cell patch clamp assay; type: cell-based
[19] = target: T1, Acid-sensing ion channel 1 (Homo sapiens); test: Reversible inhibition of human ASIC1a endogenously expressed in HEK293 cells clamped at -100 mV gated ionic current at pH 5.0 measured after drug wash out by standard whole cell patch clamp assay; type: cell-based
[20] = target: T1, Acid-sensing ion channel 1 (Homo sapiens); test: Inhibition of human ASIC1a endogenously expressed in HEK293 cells clamped at -100 mV gated ionic current at 100 nM by standard whole cell patch clamp assay; type: cell-based
[21] = target: T1, Acid-sensing ion channel 1 (Homo sapiens); test: Inhibition of human ASIC1a endogenously expressed in HEK293 cells clamped at -20 mV gated ionic current at 100 nM by standard whole cell patch clamp assay; type: cell-based
[22] = target: T1, Acid-sensing ion channel 1 (Homo sapiens); test: Inhibition of human ASIC1a endogenously expressed in HEK293 cells clamped at -100 mV gated ionic current at 100 nM in presence of cellular membrane depolarization by standard whole cell patch clamp assay; type: cell-based
[23] = target: T5, Acid-sensing ion channel 1; test: Orthosteric non-competitive inhibition of human ASIC1a endogenously expressed in HEK293 cells clamped at -100 mV gated ionic current assessed as EC50 for steady state activation at 10 nM by standard whole cell patch clamp assay (reference value: 6.57 +/- 0.01 pH); type: cell-based
[24] = target: T5, Acid-sensing ion channel 1; test: Orthosteric non-competitive inhibition of human ASIC1a endogenously expressed in HEK293 cells clamped at -100 mV gated ionic current assessed as EC50 for steady state activation at 100 nM by standard whole cell patch clamp assay (reference value: 6.57 +/- 0.01 pH); type: cell-based
[25] = target: T5, Acid-sensing ion channel 1; test: Orthosteric non-competitive inhibition of human ASIC1a endogenously expressed in HEK293 cells clamped at -100 mV gated ionic current assessed as EC50 for steady state activation at 1 uM by standard whole cell patch clamp assay (reference value: 6.57 +/- 0.01 pH); type: cell-based
[26] = target: T1, Acid-sensing ion channel 1 (Homo sapiens); test: Orthosteric non-competitive inhibition of human ASIC1a endogenously expressed in HEK293 cells clamped at -100 mV gated ionic current assessed as maximal evoked response for steady-state activation at 10 nM by standard whole cell patch clamp assay relative to untreated control; type: cell-based; parameters: scale not given: the % may be the effect or the level left
[27] = target: T1, Acid-sensing ion channel 1 (Homo sapiens); test: Orthosteric non-competitive inhibition of human ASIC1a endogenously expressed in HEK293 cells clamped at -100 mV gated ionic current assessed as maximal evoked response for steady-state activation at 100 nM by standard whole cell patch clamp assay relative to untreated control; type: cell-based; parameters: scale not given: the % may be the effect or the level left
[28] = target: T1, Acid-sensing ion channel 1 (Homo sapiens); test: Orthosteric non-competitive inhibition of human ASIC1a endogenously expressed in HEK293 cells clamped at -100 mV gated ionic current assessed as maximal evoked response for steady-state activation at 1 uM by standard whole cell patch clamp assay relative to untreated control; type: cell-based; parameters: scale not given: the % may be the effect or the level left
[29] = target: T2, Acid-sensing ion channel 1 (Rattus norvegicus); test: Inhibition of ASIC1a in Wistar rat pyramidal hippocampal neurons assessed as ASIC1a-like currents level at 100 nM by patch clamp assay; parameters: scale not given: the % may be the effect or the level left
[30] = target: T2, Acid-sensing ion channel 1 (Rattus norvegicus); test: Inhibition of ASIC1a in Wistar rat pyramidal hippocampal neurons assessed as reduction in main ionic currents at 1 uM by patch clamp assay
Hippocampus [31] = test: Effect on slope of field excitatory postsynaptic potential in Wistar rat hippocampal CA3-CA1 region at 100 nM by patch clamp method; type: functional

inhibition [9]: 44.8%
inhibition [10]: 2.5%
inhibition [11]: 98.6%
inhibition [12]: 23.7%
Activity [13]: 48.3%
Activity [14]: 45.2%
Activity [15]: 99.3%
IC50 [16]: 0.0274 µM
IC50 [17]: 7.34 µM
inhibition [18]: Active
inhibition [19]: Active
inhibition [20]: 42.1%
inhibition [21]: 45.8%
inhibition [22]: Active
EC50 [23]: 6.5 pH
EC50 [24]: 6.4 pH
EC50 [25]: 6.18 pH
Activity [26]: 93.2%
Activity [27]: 83.9%
Activity [28]: 72.2%
Activity [29]: 9.39%
inhibition [30]: inactive
SMILES: CCN(CC)CCN(Cc1ccc(Cl)cc1)c1ccc2cc(C(=N)N)c(=O)oc2c1
Activity (Hippocampus [1]): 104.6%
inhibition (Hippocampus [2]): inactive
inhibition (Hippocampus [3]): inactive
Activity (Hippocampus [4]): Active
Activity (Hippocampus [5]): Active
Activity (Hippocampus [6]): 193.2%
Activity (Hippocampus [7]): 106.2%
Activity (Hippocampus [8]): 117%
Activity (Hippocampus [31]): 103.4%
